Data set [1] relates to IR K484E/L552A. The data set is described as follows: Auto-phosphorylation of IR in 293FT cells expressing IR K484E/L552A. It counts as cell-based, human. The conditions noted are these: 10 nM, 10 min. As for the experimental part:
(§1) For the activation assay, the short isoform of human IR in pCS2-MYC was used as described previously[20],[49]. Plasmid transfections into 293FT cells were performed with Lipofectamin^TM 2000 (Invitrogen).
(§2) The cells were incubated with the lysis buffer B [50 mM Hepes pH 7.4, 150 mM NaCl, 10% Glycerol, 1% Triton X-100, 1 mM EDTA, 100 mM sodium fluoride, 2 mM sodium orthovanadate, 20 mM sodium pyrophosphate, 0.5 mM dithiothreitol (DTT), 2 mM phenylmethylsulfonyl fluoride (PMSF)] supplemented with cOmplete Protease Inhibitor Cocktail (Roche), PhosSTOP (Sigma), and 25 U/ml turbo nuclease (Accelagen) on ice for 1 h. After centrifuging at 20,817×g at 4 °C for 10 min, the concentrations of cell lysate were measured using Micro BCA Protein Assay Kit (Thermo Scientific). About 50–60 μg total proteins were analyzed by SDS-PAGE and quantitative Western blotting. […] For quantitative western blots, anti-rabbit immunoglobulin G (IgG) (H + L) (WB, 1:5000; Dylight 800 conjugates, Cat. #5151) and anti-mouse IgG (H + L) (WB, 1:5000; Dylight 680 conjugates, Cat. #5470) (Cell Signaling) were used as secondary antibodies. […]

The test system of data set [2] is IR N15K. In words: Auto-phosphorylation of IR in 293FT cells expressing IR N15K. The format is cell-based, human. As for the experimental part:
as §1, §2

Data set [3] relates to IR D707A. The data set is described as follows: Auto-phosphorylation of IR in 293FT cells expressing IR D707A. It counts as cell-based, human. As for the experimental part:
as §1, §2

Data set [4] deals with IR F701A/F705A. In words: Auto-phosphorylation of IR in 293FT cells expressing IR F701A/F705A. The format is cell-based, human. How it is done:
as §1, §2

The subject of data set [5] is IR R345A. The data set is described as follows: Auto-phosphorylation of IR in 293FT cells expressing IR R345A. It counts as cell-based, human. As for the experimental part: as §1, §2
The subject of data set [6] is blood glucose. The data set is described as follows: Insulin tolerance test. It counts as in vivo, mouse. The following applies: i.p.; Humulin 6 nmol/kg, S597, S20D, W6A, F27A 9 nmol/kg, N20 27 nmol/kg; male mice. How it is done: Briefly, 2–3 months old male mice were fasted for 2 h and their blood glucose levels (T = 0) were measured with tail bleeding using a glucometer (AlphaTRAK). After then, mice were injected intraperitoneally with Humulin (6 nmol/kg body weight), S597 (9 nmol/kg), S597-S20D (9 nmol/kg), S597-W6A (9 nmol/kg), S597-F27A (9 nmol/kg), or S597-N20 (27 nmol/kg), and their blood glucose levels were measured at the indicated time points after injection.

Data set [7] is described as follows: Body weight after chronic treatment, before OGTT. The format is in vivo, mouse. How it is done:
For the oral glucose tolerance test, mice were fasted for 6 h and their blood glucose levels (T = 0) were measured with tail bleeding using a glucometer (AlphaTRAK). After then, glucose (2 g/kg body weight) was administered by oral gavage. Blood glucose levels were measured at the indicated time points after glucose administration. For Fig. S10f, 2 months old male mice were fasted for 14 h. […] One hour later, livers were collected.

“And” between values parts separate entries of the source, which are not always exact repeats. Equal entries are not always repeated.

These results are taken from paper PMC9508239 (Nature Communications, 2022).

On to “insulin: native IR ligand used as comparator; Humulin in the in vivo tests”, for which the IR activation entry in data set [1] is “could not be activated efficiently”; in data set [2] it was “reduced insulin-dependent IR activation”; in data set [3], “reduced insulin-dependent IR activation”; in data set [4], “reduced insulin-dependent IR activation”; in data set [5], “largely diminished IR activation by insulin”. Also, the blood glucose lowering result in data set [6] is recorded as “significantly reduced”. For the same substance, in data set [7] (50U/kg body weight, i.p., once daily for three days, male C57BL/6J, individual mice, N = 5, listed as Ins, in g (unit assumed)), the “Body weight before OGTT” value is 19.9 and 21.6. In addition, in data set [7] (50U/kg once daily for three days, two-tailed Student's t-test), the “Body weight, significance” value is given as “No significant”.
